Measured values from patent US10202361B2, “Pyridazinones as herbicides” (E I DU PONT DE NEMOURS AND COMPANY, priority 2014, dated 2019).
Read-outs that look alike come from different tables or passages of the source.

Key:
Assay in all cases: Test C pre-/postemergence greenhouse herbicide test
Format in all cases: in vivo
[1] = test system: barnyardgrass (Echinochloa crus-galli); conditions: Barnyardgrass, Postemergence
Procedure, shortened: (§1)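 Visual ratings, 0 = no effect, 100 = complete control, vs untreated controls at 13–15 d. Pre: seeds in loam/sand. Post: 2–18 cm plants (1–4 leaf), peat/vermiculite mix. Surfactant-containing solvent formulation; greenhouse.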

[2] = test system: blackgrass (Alopecurus myosuroides); conditions: Alopecurus myosuroides, Blackgrass, read-out: Plant response rating; for pest or weed control at 31 g/ha: 31 g ai/ha; for pest or weed control at 62 g/ha: 62 g ai/ha; for pest or weed control at 125 g/ha: 125 g ai/ha; for pest or weed control at 250 g/ha: 250 g ai/ha
Procedure, shortened: as §1

[3] = test system: foxtail, giant (giant foxtail, Setaria faberii); conditions: Setaria faberi, Foxtail, Giant, read-out: Plant response rating; for pest or weed control at 31 g/ha: 31 g ai/ha; for pest or weed control at 62 g/ha: 62 g ai/ha; for pest or weed control at 125 g/ha: 125 g ai/ha; for pest or weed control at 250 g/ha: 250 g ai/ha
Procedure, shortened: as §1

soybean (Glycine max) = conditions: Glycine max, Soybean, read-out: Plant response rating; for plant injury at 31 g/ha: 31 g ai/ha; for plant injury at 62 g/ha: 62 g ai/ha; for plant injury at 125 g/ha: 125 g ai/ha; for plant injury at 250 g/ha: 250 g ai/ha
Procedure, shortened: as §1

[4] = test system: velvetleaf (Abutilon theophrasti); conditions: Abutilon theophrasti, Velvetleaf, read-out: Plant response rating; for pest or weed control at 31 g/ha: 31 g ai/ha; for pest or weed control at 62 g/ha: 62 g ai/ha; for pest or weed control at 125 g/ha: 125 g ai/ha; for pest or weed control at 250 g/ha: 250 g ai/ha
Procedure, shortened: as §1

[5] = test system: waterhemp (common waterhemp, Amaranthus rudis); conditions: Waterhemp, Postemergence
Procedure, shortened: as §1

[6] = test system: wheat (winter wheat, Triticum aestivum); conditions: Triticum aestivum, Wheat, read-out: Plant response rating; for plant injury at 31 g/ha: 31 g ai/ha; for plant injury at 62 g/ha: 62 g ai/ha; for plant injury at 125 g/ha: 125 g ai/ha; for plant injury at 250 g/ha: 250 g ai/ha
Procedure, shortened: as §1

[7] = test system: morningglory (Ipomoea coccinea); conditions: Morningglory
Procedure, shortened: as §1

SMILES: Cc1cc(Oc2ccnc(C(F)(F)F)c2)nn(-c2ccc(C(F)(F)F)cc2)c1=O [Compound 6, 4-methyl-2-[4-(trifluoromethyl)phenyl]-6-[[2-(trifluoromethyl)-4-pyridinyl]oxy]-3(2H)-pyridazinone]
- Plant response rating ([1]; 31 g ai/ha): 10
- Plant response rating ([1]; 62 g ai/ha): 10
- Plant response rating ([1]; 125 g ai/ha): 35
- Plant response rating ([1]; 250 g ai/ha): 65
- pest or weed control at 31 g/ha ([2]; post-emergence, Postemergence): 30%
- pest or weed control at 62 g/ha ([2]; post-emergence, Postemergence): 35%
- pest or weed control at 125 g/ha ([2]; post-emergence, Postemergence): 35%
- pest or weed control at 250 g/ha ([2]; post-emergence, Postemergence): 50%
- pest or weed control at 31 g/ha ([3]; post-emergence, Postemergence): 25%
- pest or weed control at 62 g/ha ([3]; post-emergence, Postemergence): 35%
- pest or weed control at 125 g/ha ([3]; post-emergence, Postemergence): 65%
- pest or weed control at 250 g/ha ([3]; post-emergence, Postemergence): 85%
- plant injury at 31 g/ha (soybean (Glycine max); post-emergence, Postemergence): 35%
- plant injury at 62 g/ha (soybean (Glycine max); post-emergence, Postemergence): 50%
- plant injury at 125 g/ha (soybean (Glycine max); post-emergence, Postemergence): 50%
- plant injury at 250 g/ha (soybean (Glycine max); post-emergence, Postemergence): 65%
- pest or weed control at 31 g/ha ([4]; post-emergence, Postemergence): 45%
- pest or weed control at 62 g/ha ([4]; post-emergence, Postemergence): 45%
- pest or weed control at 125 g/ha ([4]; post-emergence, Postemergence): 55%
- pest or weed control at 250 g/ha ([4]; post-emergence, Postemergence): 95%
- Plant response rating ([5]; 31 g ai/ha): 95
- Plant response rating ([5]; 62 g ai/ha): 98
- Plant response rating ([5]; 125 g ai/ha): 98
- Plant response rating ([5]; 250 g ai/ha): 98
- plant injury at 31 g/ha ([6]; post-emergence, Postemergence): 10%
- plant injury at 62 g/ha ([6]; post-emergence, Postemergence): 10%
- plant injury at 125 g/ha ([6]; post-emergence, Postemergence): 15%
- plant injury at 250 g/ha ([6]; post-emergence, Postemergence): 25%

SMILES: Cc1cc(=O)n(-c2ccc(F)cc2)nc1Oc1ccnc(C(F)(F)F)c1 [Compound 14, 2-(4-fluorophenyl)-5-methyl-6-[[2-(trifluoromethyl)-4-pyridinyl]oxy]-3 (2H)-pyridazinone]
- pest or weed control at 31 g/ha ([2]; post-emergence, Postemergence): 5%
- pest or weed control at 62 g/ha ([2]; post-emergence, Postemergence): 5%
- pest or weed control at 125 g/ha ([2]; post-emergence, Postemergence): 5%
- pest or weed control at 250 g/ha ([2]; post-emergence, Postemergence): 45%
- pest or weed control at 62 g/ha ([2]; pre-emergence, Preemergence): 10%
- pest or weed control at 125 g/ha ([2]; pre-emergence, Preemergence): 15%
- pest or weed control at 250 g/ha ([2]; pre-emergence, Preemergence): 15%
- pest or weed control at 31 g/ha ([3]; post-emergence, Postemergence): 5%
- pest or weed control at 62 g/ha ([3]; post-emergence, Postemergence): 10%
- pest or weed control at 125 g/ha ([3]; post-emergence, Postemergence): 10%
- pest or weed control at 250 g/ha ([3]; post-emergence, Postemergence): 15%
- pest or weed control at 31 g/ha ([3]; pre-emergence, Preemergence): 80%
- pest or weed control at 62 g/ha ([3]; pre-emergence, Preemergence): 98%
- pest or weed control at 125 g/ha ([3]; pre-emergence, Preemergence): 100%
- pest or weed control at 250 g/ha ([3]; pre-emergence, Preemergence): 100%
- Plant response rating ([7]; Postemergence, 31 g ai/ha): 75
- Plant response rating ([7]; Postemergence, 62 g ai/ha): 75
- Plant response rating ([7]; Postemergence, 125 g ai/ha): 80
- Plant response rating ([7]; Postemergence, 250 g ai/ha): 98
- Plant response rating ([7]; Preemergence, 31 g ai/ha): 35
- Plant response rating ([7]; Preemergence, 62 g ai/ha): 60
- Plant response rating ([7]; Preemergence, 125 g ai/ha): 65
- Plant response rating ([7]; Preemergence, 250 g ai/ha): 75
- plant injury at 31 g/ha (soybean (Glycine max); post-emergence, Postemergence): 90%
- plant injury at 62 g/ha (soybean (Glycine max); post-emergence, Postemergence): 90%
- plant injury at 125 g/ha (soybean (Glycine max); post-emergence, Postemergence): 95%
- plant injury at 250 g/ha (soybean (Glycine max); post-emergence, Postemergence): 95%
- plant injury at 62 g/ha (soybean (Glycine max); pre-emergence, Preemergence): 40%
- plant injury at 125 g/ha (soybean (Glycine max); pre-emergence, Preemergence): 55%
- plant injury at 250 g/ha (soybean (Glycine max); pre-emergence, Preemergence): 75%
- pest or weed control at 31 g/ha ([4]; post-emergence, Postemergence): 10%
- pest or weed control at 62 g/ha ([4]; post-emergence, Postemergence): 30%
- pest or weed control at 125 g/ha ([4]; post-emergence, Postemergence): 50%
- pest or weed control at 62 g/ha ([4]; pre-emergence, Preemergence): 10%
- pest or weed control at 125 g/ha ([4]; pre-emergence, Preemergence): 20%
- pest or weed control at 250 g/ha ([4]; pre-emergence, Preemergence): 100%
- plant injury at 31 g/ha ([6]; post-emergence, Postemergence): 5%
- plant injury at 62 g/ha ([6]; post-emergence, Postemergence): 5%
- plant injury at 125 g/ha ([6]; post-emergence, Postemergence): 5%
- plant injury at 250 g/ha ([6]; post-emergence, Postemergence): 5%
- plant injury at 62 g/ha ([6]; pre-emergence, Preemergence): 0%
- plant injury at 125 g/ha ([6]; pre-emergence, Preemergence): 15%
- plant injury at 250 g/ha ([6]; pre-emergence, Preemergence): 25%
